Test results as given in paper PMC6592549, “Ligand-guided homology modeling drives identification of novel histamine H3 receptor ligands” (PLoS ONE, 2019).
Where two headings read alike, the source gives them in different places.

Columns and labels:
[1] = target: Histamine H3 receptor (H3R); settings: Table A in S1 File, cited from earlier work
[2] = target: Histamine H3 receptor (H3R); settings: Table A in S1 File, cited from earlier work; remark: listed apart in the source
hH3R = target: T1, hH3R (Homo sapiens, UniProt Q9Y5N1); assay: Radioligand depletion assay with [3H]-N-alpha-methylhistamine on crude hH3R membrane extracts; format: binding; settings: for Ki: mean of at least three independent experiments, each in triplicates, Cheng-Prusoff; for H3R binding, result in words: radioligand depletion assay against H3R
T1 construct: expressed in transfected cells; host or cells: HEK-293 cells stably expressing hH3R
Experimental: Radioligand depletion assays were performed as described previously using crude hH3R membrane extracts obtained from HEK-293 cells stably expressing the hH3R [15, 57]. Briefly, crude membrane extracts were incubated with various concentrations of test ligands (between 0.01 nM and 100 μM) and [3H]-N-alpha-methylhistamine. Bound radioligand were harvested through GF/B filters and measured using liquid scintillation counting. Data analysis were performed with GraphPad Prism 6 using non-linear regression. The Ki values for each experiment were obtained according to Cheng-Prusoff and converted to pKi values to allow statistical analysis. Mean values were calculated from at least three independent experiments, each performed in triplicates (Table E in S1 File).

T1 sequence (Q9Y5N1 whole entry): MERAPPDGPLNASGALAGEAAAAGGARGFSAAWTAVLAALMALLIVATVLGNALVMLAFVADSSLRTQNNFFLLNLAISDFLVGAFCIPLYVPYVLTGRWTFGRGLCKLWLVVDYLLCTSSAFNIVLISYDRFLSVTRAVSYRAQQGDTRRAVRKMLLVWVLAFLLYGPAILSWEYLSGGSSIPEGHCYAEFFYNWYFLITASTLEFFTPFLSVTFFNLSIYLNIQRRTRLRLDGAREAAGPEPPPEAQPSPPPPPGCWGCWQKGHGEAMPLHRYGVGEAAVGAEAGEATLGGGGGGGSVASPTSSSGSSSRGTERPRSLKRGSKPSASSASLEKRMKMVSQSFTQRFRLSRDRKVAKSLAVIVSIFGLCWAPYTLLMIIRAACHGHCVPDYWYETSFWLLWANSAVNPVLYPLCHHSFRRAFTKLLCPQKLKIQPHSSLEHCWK

c1nc([C@H]2C[C@@H]2CCNCC2CCCCC2)c[nH]1 [CHEMBL214312]
Ki ([1]; ref 7 (S1 File)): 5.3 nM

N#CC(C#N)=C1N(CCCN2CCCCC2)CCN1CCCN1CCCCC1 [CHEMBL257391]
Ki ([1]; ref 6 (S1 File)): 2.4 nM

C[C@@H]1CCCN1CCc1cc2cc(CNc3ccc(Cl)nn3)ccc2o1 [CHEMBL362952]
Ki ([1]; ref 10 (S1 File)): 0.3 nM

C[C@@H]1C[C@@](O)(C#Cc2cccc3ccccc23)[C@@H](C)CN1C [CHEMBL1269844]
IC50 ([2]; ref 3 (S1 File)): 9 nM

C[C@@H]1CCCN1CCCOc1ccc(-c2cc(-c3ccccc3)c(=O)n(C)c2)cc1 [CHEMBL1923737]
Ki ([1]; ref 5 (S1 File)): 3.5 nM

CCNC(=O)C1CC(F)(c2ccc(CN3CCCC3)c(F)c2)C1 (centres unmarked) [CHEMBL2151197]
Ki ([1]; ref 9 (S1 File)): 2.3 nM

CN(C)CCc1ccc(NC(=O)Nc2ccc(CCN(C)C)cc2)cc1 [CHEMBL2387294]
IC50 ([2]; ref 2 (S1 File)): 6.5 nM

c1ccc2c(CCNc3ccc(CN4CCOCC4)cc3)c[nH]c2c1 [CHEMBL2419581]
Ki ([1]; ref 4 (S1 File)): 4.3 nM

CC(C)N1CCN(C(=O)[C@H]2CC23CCN(C2CCOCC2)CC3)CC1 [CHEMBL3124968]
IC50 ([2]; ref 8 (S1 File)): 8.3 nM

O=C(c1csc(-c2ccccc2)n1)N1CCCN(C2CC2)CC1 [compound 5]
Ki (hH3R): 148 nM | H3R binding, result in words (hH3R): nanomolar concentration ranges

CCN1CCN(C(=O)c2ccc(-c3nc4ccccc4s3)s2)CC1 [compound 6]
Ki (hH3R): 38.2 nM | H3R binding, result in words (hH3R): nanomolar concentration ranges

Cc1csc(-c2ccc(C(=O)N3CCN(C)CC3)cc2)n1 [compound 8]
H3R binding, result in words (hH3R): inactive
